Assay results from the NIST ThermoML archive (doi:10.1016/j.jct.2016.07.012).
Values joined by “and” are separate entries in the source; they are usually repeats but may differ in a detail not shown here. Identical values can stand only once.

Assay: molar heat capacity at constant pressure
Conditions: 101.33 kPa, Metastable crystal, Small (less than 1 g) adiabatic calorimetry

CCCCn1cc[n+](C)c1.F[P-](F)(F)(F)(F)F [1-butyl-3-methylimidazolium hexafluorophosphate]
Conditions | molar heat capacity at constant pressure
5.14 K | 2.42 J/K/mol
5.39 K | 2.76 J/K/mol and 1.64 J/K/mol
5.67 K | 1.92 J/K/mol
5.74 K | 3.28 J/K/mol
6.01 K | 2.31 J/K/mol
6.1 K | 3.85 J/K/mol
6.43 K | 2.83 J/K/mol
6.54 K | 4.59 J/K/mol
6.93 K | 3.51 J/K/mol
7.06 K | 5.54 J/K/mol
7.43 K | 4.3 J/K/mol
7.59 K | 6.57 J/K/mol
7.94 K | 5.16 J/K/mol
8.12 K | 7.67 J/K/mol
8.46 K | 6.12 J/K/mol
8.66 K | 8.84 J/K/mol
8.98 K | 7.15 J/K/mol
9.2 K | 10.06 J/K/mol
9.51 K | 8.25 J/K/mol
9.75 K | 11.33 J/K/mol
10.05 K | 9.41 J/K/mol
10.36 K | 12.83 J/K/mol
10.66 K | 10.82 J/K/mol
11.05 K | 14.53 J/K/mol
11.34 K | 12.43 J/K/mol
11.75 K | 16.3 J/K/mol
12.02 K | 14.11 J/K/mol
12.45 K | 18.11 J/K/mol
12.71 K | 15.86 J/K/mol
13.16 K | 19.96 J/K/mol
13.41 K | 17.66 J/K/mol
13.87 K | 21.84 J/K/mol
14.11 K | 19.5 J/K/mol
14.59 K | 23.69 J/K/mol
14.82 K | 21.33 J/K/mol
15.31 K | 25.67 J/K/mol
15.64 K | 23.71 J/K/mol
16.14 K | 28.07 J/K/mol
16.58 K | 26.38 J/K/mol
17.09 K | 30.62 J/K/mol
17.53 K | 28.96 J/K/mol
18.04 K | 33.1 J/K/mol
18.47 K | 31.53 J/K/mol
18.99 K | 35.56 J/K/mol
19.42 K | 34.1 J/K/mol
19.94 K | 37.99 J/K/mol
20.38 K | 36.68 J/K/mol
21.2 K | 41.25 J/K/mol
21.63 K | 40.09 J/K/mol
22.78 K | 45.26 J/K/mol
23.2 K | 44.28 J/K/mol
24.36 K | 49.25 J/K/mol
24.78 K | 48.5 J/K/mol
25.94 K | 53.1 J/K/mol
26.36 K | 52.53 J/K/mol
27.42 K | 56.44 J/K/mol
27.74 K | 55.76 J/K/mol
28.99 K | 60 J/K/mol
29.16 K | 59.25 J/K/mol
30.59 K | 63.64 J/K/mol
30.76 K | 63.06 J/K/mol
32.36 K | 67.48 J/K/mol
32.52 K | 67.01 J/K/mol
34.28 K | 71.38 J/K/mol
34.44 K | 71.11 J/K/mol
36.21 K | 75.09 J/K/mol
36.36 K | 74.97 J/K/mol
38.14 K | 78.66 J/K/mol
38.29 K | 78.65 J/K/mol
40.07 K | 82.09 J/K/mol
40.21 K | 82.2 J/K/mol
42.09 K | 85.6 J/K/mol
42.23 K | 85.83 J/K/mol
44.21 K | 89.2 J/K/mol
44.36 K | 89.57 J/K/mol
46.33 K | 92.75 J/K/mol
46.49 K | 93.18 J/K/mol
48.45 K | 96.18 J/K/mol
48.62 K | 96.7 J/K/mol
50.58 K | 99.47 J/K/mol
50.75 K | 100 J/K/mol
52.71 K | 102.6 J/K/mol
52.88 K | 103.3 J/K/mol
54.84 K | 105.6 J/K/mol
55.01 K | 106.3 J/K/mol
56.97 K | 108.5 J/K/mol
57.15 K | 109.3 J/K/mol
59.11 K | 111.3 J/K/mol
59.29 K | 112.2 J/K/mol
61.24 K | 114 J/K/mol
61.43 K | 115 J/K/mol
63.37 K | 116.6 J/K/mol
63.57 K | 117.8 J/K/mol
65.51 K | 119.2 J/K/mol
65.71 K | 120.5 J/K/mol
67.65 K | 121.8 J/K/mol
67.86 K | 123.3 J/K/mol
69.79 K | 124.4 J/K/mol
70.01 K | 126 J/K/mol
72.04 K | 127 J/K/mol
72.26 K | 128.8 J/K/mol
74.39 K | 129.8 J/K/mol
74.61 K | 131.7 J/K/mol
76.74 K | 132.5 J/K/mol
76.97 K | 134.6 J/K/mol
78.34 K | 134.5 J/K/mol
78.72 K | 137.3 J/K/mol
79.09 K | 135.1 J/K/mol
79.34 K | 137.4 J/K/mol
80.13 K | 136.3 J/K/mol
80.5 K | 139.2 J/K/mol
81.45 K | 137.7 J/K/mol
81.7 K | 140.2 J/K/mol
81.8 K | 138.1 J/K/mol
82.15 K | 141.2 J/K/mol
83.48 K | 139.8 J/K/mol
83.81 K | 140.2 J/K/mol
83.82 K | 143 J/K/mol
84.07 K | 142.9 J/K/mol
85.17 K | 141.6 J/K/mol
85.49 K | 145 J/K/mol
86.86 K | 143.5 J/K/mol
87.17 K | 146.9 J/K/mol
88.56 K | 145.3 J/K/mol
88.85 K | 148.6 J/K/mol
90.27 K | 147.2 J/K/mol
90.55 K | 150.8 J/K/mol
91.99 K | 149 J/K/mol
92.25 K | 152.7 J/K/mol
93.71 K | 150.9 J/K/mol
93.96 K | 154.7 J/K/mol
95.45 K | 152.7 J/K/mol
95.67 K | 156.7 J/K/mol
97.19 K | 154.7 J/K/mol
97.39 K | 159.1 J/K/mol
98.94 K | 156.5 J/K/mol
99.12 K | 160.7 J/K/mol
100.69 K | 158.4 J/K/mol
100.85 K | 162.3 J/K/mol
102.5 K | 160.3 J/K/mol
102.65 K | 164.4 J/K/mol
104.38 K | 162.4 J/K/mol
104.51 K | 166.4 J/K/mol
106.27 K | 164.4 J/K/mol
106.38 K | 168.5 J/K/mol
108.17 K | 166.5 J/K/mol
108.26 K | 170.5 J/K/mol
110.06 K | 168.6 J/K/mol
110.13 K | 172.5 J/K/mol
111.96 K | 170.7 J/K/mol
112.01 K | 174.6 J/K/mol
113.86 K | 172.8 J/K/mol
113.9 K | 176.6 J/K/mol
115.77 K | 174.9 J/K/mol
115.78 K | 178.7 J/K/mol
117.67 K | 180.7 J/K/mol
117.68 K | 177.1 J/K/mol
119.56 K | 182.8 J/K/mol
119.59 K | 179.2 J/K/mol
121.46 K | 184.9 J/K/mol
121.5 K | 181.4 J/K/mol
123.35 K | 186.9 J/K/mol
123.41 K | 183.7 J/K/mol
125.25 K | 189.1 J/K/mol
